Among the data in patent publication US9980973B2, “Bicyclic heterocycle compounds and their uses in therapy” (ASTEX THERAPEUTICS LIMITED, priority 2012, dated 2018) are inhibition, IC50 and EC50 values, retold here.

Experiment [1] has as its target T1, BIR3 domain of human XIAP (Homo sapiens, UniProt P98170).
T1 construct: BIR3 domain of human XIAP (residues 252-350) fused to a His-tag; His-tag (cleaved yes); made in house; host or cells: Escherichia coli
The experiment is described as follows: XIAP in vitro competitive displacement binding assay (fluorescence polarization). The settings on record: for inhibition at 0.04 µM: 1 h, PI at 0.04 μM, read-out: Xiap IC50 or PI μM (PI). Background: Fluorescence polarisation rises when a labelled molecule tumbles more slowly, as on binding a larger partner.

The test system of experiment [2] is EVSA-T (human breast carcinoma). The experiment is described as follows: Anti-proliferative activity, Alamar Blue assay, EVSA-T. It is filed as cell-based. For orientation: Alamar Blue is a resazurin reagent that responds to reducing activity.
[3] abbreviates: Homo sapiens, EVSA-T, 72 h, EVSA-T cells, 72 hours, Alamar Blue, read-out: EVSA-T prolif.
The mark [4] stands for this setting: Homo sapiens, EVSA-T, read-out: EC50 in EVSA-T cell line assays.
Where [5] appears, read: plain number = IC50, average where more than one data point, read-out: Xiap IC50 or PI μM (IC50).

As usually defined, the IC50 is the concentration that gives 50% inhibition.

Where a name gives a salt, the structure may show the parent alone. Read-outs that look alike come from different tables or passages of the source. Where only a bound is given, the exact number is not on record here.

T1 sequence (P98170 252-350): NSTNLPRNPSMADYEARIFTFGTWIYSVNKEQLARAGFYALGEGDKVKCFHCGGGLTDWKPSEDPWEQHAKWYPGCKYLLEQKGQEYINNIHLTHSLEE

As to `COC[C@@]1(C)COCCN1C[C@H]1CN[C@H](C)CN1CC(=O)N1CC(C)(C)c2cnc(Cc3ccc(F)cc3F)cc21` [Example 98, 1-{6-[(2,4-Difluorophenyl)methyl]-3,3-dimethyl-1H,2H,3H-pyrrolo[3,2-c]pyridin-1-yl}-2-[(2R,5R)-2-{[(3S)-3-(methoxymethyl)-3-methylmorpholin-4-yl]methyl}-5-methylpiperazin-1-yl]ethan-1-one dihydrochloride], the inhibition at 0.04 µM in experiment [1] is 62%. Also, in experiment [1] (or at least 50% inhibition of the activity at 0.1 μM, read-out: IC50 in the XIAP assay), the IC50 was below 0.1 µM. The EC50 was 7.3 nM in experiment [2] (setting [3]) and below 1000 nM in experiment [2] (setting [4]).

Turning to `C[C@@H]1CN(CC(=O)N2CC(C)(C)c3cnc(Cc4ccc(F)cc4)cc32)[C@@H](CN2[C@H](C)COC[C@H]2C)CN1` [Example 55, 2-[(2R,5R)-2-{[(3R,5R)-3,5-Dimethylmorpholin-4-yl]methyl}-5-methylpiperazin-1-yl]-1-{6-[(4-fluorophenyl)methyl]-3,3-dimethyl-1H,2H,3H-pyrrolo[3,2-c]pyridin-1-yl}ethan-1-one, dihydrochloride], the inhibition at 0.04 µM in experiment [1] was found to be 59%. Also, the EC50 was 0.23 nM in experiment [2] (setting [3]) and below 1000 nM in experiment [2] (setting [4]).

As for `C[C@@H]1CN(CC(=O)N2CC(C)(C)c3ncc(Cc4ccc(F)cc4)cc32)[C@@H](CN2CC3CC2CO3)CN1` (stereo partly drawn) [Example 20, 1-{6-[(4-Fluorophenyl)methyl]-3,3-dimethyl-1H,2H,3H-pyrrolo[3,2-b]pyridin-1-yl}-2-[(2R,5R)-5-methyl-2-{2-oxa-5-azabicyclo[2.2.1]heptan-5-ylmethyl}piperazin-1-yl]ethan-1-one dihydrochloride], in experiment [1] (setting [5]), the IC50 turned out to be 0.14 µM. Further, the results for the EC50 in experiment [2] (setting [3]) and in experiment [2] (setting [4]) were 2.8 nM and below 1000 nM, respectively.

In the case of `CCCC(F)(F)c1cc2c(cn1)C(C)(C)CN2C(=O)CN1C[C@@H](C)NC[C@@H]1CN1CCOC[C@@]1(C)CO` (single isomer, unassigned) [Example 68, dihydrochloride], in experiment [1], the inhibition at 0.04 µM worked out at 69%. Further, the EC50 was 22 nM in experiment [2] (setting [3]) and below 1000 nM in experiment [2] (setting [4]).

As for `C[C@@H]1CN(CC(=O)N2CC(C)(C)c3ncc(Cc4ccc(F)cc4)cc32)[C@@H](CN2CCOCC2C(F)(F)F)CN1` (single isomer, unassigned) [Example 25, 1-{6-[(4-Fluorophenyl)methyl]-3,3-dimethyl-1H,2H,3H-pyrrolo[3,2-b]pyridin-1-yl}-2-[(2R,5R)-5-methyl-2-{[3-([R or S]trifluoromethyl)morpholin-4-yl]methyl}piperazin-1-yl]ethan-1-one hydrochloride], in experiment [1] (setting [5]), the 50% inhibitory concentration (IC50) was found to be 0.12 µM. For the same molecule, the EC50 was 1.2 nM in experiment [2] (EVSA-T cells, 72 hours, Alamar Blue, hydrochloride, read-out: EVSA-T prolif) and below 1000 nM in experiment [2] (setting [4]).

Turning to `COC[C@@H]1COCCN1C[C@H]1CN[C@H](C)CN1CC(=O)N1CC(C)(C)c2ncc(Cc3ccc(F)cc3)cc21` [Example 1, 1-{6-[(4-Fluorophenyl)methyl]-3,3-dimethyl-1H,2H,3H-pyrrolo[3,2-b]pyridin-1-yl}-2-[(2R,5R)-2-{[(3R)-3-(methoxymethyl)morpholin-4-yl]methyl}-5-methylpiperazin-1-yl]ethan-1-one dihydrochloride], the inhibition at 0.04 µM in experiment [1] came to 35%. Also, the values for the EC50 in experiment [2] (setting [3]) and in experiment [2] (setting [4]) were 2.9 nM and below 1000 nM, respectively.

In the case of `C[C@@H]1CN(CC(=O)N2CC(C)(C)c3ncc(Cc4ccc(F)cc4)cc32)[C@@H](CN2CCOCC2(C)C(=O)O)CN1` (stereo partly drawn) [Example 59, 4-{[(2R,5R)-1-(2-{6-[(4-Fluorophenyl)methyl]-3,3-dimethyl-1H,2H,3H-pyrrolo[3,2-b]pyridin-1-yl}-2-oxoethyl)-5-methylpiperazin-2-yl]methyl}-3-methylmorpholine-3-carboxylic acid, dihydrochloride], the IC50 in experiment [1] (setting [5]) was 0.34 µM. The values for the EC50 in experiment [2] (setting [3]) and in experiment [2] (setting [4]) were 42 nM and below 1000 nM, respectively.

As to `CCC(F)(F)c1cnc2c(c1)N(C(=O)CN1C[C@@H](C)NC[C@@H]1CN1[C@H](C)COC[C@H]1C)CC2(C)C` [Example 43, 1-[6-(1,1-Difluoropropyl)-3,3-dimethyl-1H,2H,3H-pyrrolo[3,2-b]pyridin-1-yl]-2-[(2R,5R)-2-{[(3R,5R)-3,5-dimethylmorpholin-4-yl]methyl}-5-methylpiperazin-1-yl]ethan-1-one, dihydrochloride], the inhibition at 0.04 µM in experiment [1] is 62%. Also, the EC50 in experiment [2] (setting [3]) was 8.3 nM; in experiment [2] (setting [4]), below 1000 nM.

`C[C@@H]1CN(CC(=O)N2CC(C)(C)c3ncc(Cc4ccc(F)cc4)cc32)[C@@H](CN2CCN(C)C(=O)[C@H]2C)CN1` [Example 34, (3R)-4-{[(2R,5R)-1-(2-{6-[(4-Fluorophenyl)methyl]-3,3-dimethyl-1H,2H,3H-pyrrolo[3,2-b]pyridin-1-yl}-2-oxoethyl)-5-methylpiperazin-2-yl]methyl}-1,3-dimethylpiperazin-2-one dihydrochloride]: the inhibition at 0.04 µM in experiment [1] is 42%. Further, the EC50 in experiment [2] (setting [3]) is 0.85 nM; in experiment [2] (setting [4]), below 1000 nM.

On to `C[C@@H]1CN(CC(=O)N2CC(C)(C)c3ncc(Cc4ccc(F)cc4)cc32)[C@@H](CN2CCC[C@H]2CO)CN1` [Example 12, 1-{6-[(4-Fluorophenyl)methyl]-3,3-dimethyl-1H,2H,3H-pyrrolo[3,2-b]pyridin-1-yl}-2-[(2R,5R)-2-{[(2S)-2-(hydroxymethyl)pyrrolidin-1-yl]methyl}-5-methylpiperazin-1-yl]ethan-1-one dihydrochloride], for which the IC50 in experiment [1] (setting [5]) is 0.15 µM. Further, the EC50 was 1.6 nM in experiment [2] (setting [3]) and below 1000 nM in experiment [2] (setting [4]).

With `C[C@@H]1CN(CC(=O)N2CC(C)(C)c3nnc(Cc4ccc(F)cc4)cc32)[C@@H](CN2[C@H](C)COC[C@H]2C)CN1` [Example 87, 2-[(2R,5R)-2-{[(3R,5R)-3,5-Dimethylmorpholin-4-yl]methyl}-5-methylpiperazin-1-yl]-1-{3-[(4-fluorophenyl)methyl]-7,7-dimethyl-5H,6H,7H-pyrrolo[3,2-c]pyridazin-5-yl}ethan-1-one dihydrochloride], in experiment [1] (setting [5]), the 50% inhibitory concentration (IC50) was 0.14 µM. Also, the results for the EC50 in experiment [2] (setting [3]) and in experiment [2] (setting [4]) were 0.66 nM and below 1000 nM, respectively.

Regarding `C[C@@H]1CN(CC(=O)N2CC(C)(C)c3ncc(C(O)c4cc(F)ccc4F)cc32)[C@@H](CN2[C@H](C)COC[C@H]2C)CN1` (single isomer, unassigned) [Example 116, 1-{(R or S)-6-[(2,5-Difluorophenyl)(hydroxy)meth-yl]-3,3-dimethyl-1H,2H,3H-pyrrolo[3,2-b]pyridin-1-yl}-2-[(2R,5R)-2-{[(3R,5R)-3,5-dimethylmorpholin-4-yl]methyl}-5-methylpiperazin-1-yl]ethan-1-one dihydrochloride], in experiment [1], the inhibition at 0.04 µM came to 47%. In addition, in experiment [2] (EVSA-T cells, 72 hours, Alamar Blue, dihydrochloride, read-out: EVSA-T prolif), the EC50 came out at 55 nM.

Consider `C[C@@H]1CN(CC(=O)N2CC(C)(C)c3ncc(C(O)c4cccc(F)c4F)cc32)[C@@H](CN2[C@H](C)COC[C@H]2C)CN1` (single isomer, unassigned) [Example 111, (R or S)-1-{6-[(2,3-Difluorophenyl)(hydroxy)meth-yl]-3,3-dimethyl-1H,2H,3H-pyrrolo[3,2-b]pyridin-1-yl}-2-[(2R,5R)-2-{[(3R,5R)-3,5-dimethylmorpholin-4-yl]methyl}-5-methylpiperazin-1-yl]ethan-1-one dihydrochloride], for which, in experiment [1], the inhibition at 0.04 µM was determined as 45%. Besides, the EC50 in experiment [2] (setting [3]) was 25 nM; in experiment [2] (setting [4]) it was below 1000 nM.

Turning to `C[C@@H]1CN(CC(=O)N2CC(C)(C)c3ncc(Cc4ccc(F)cc4)cc32)[C@@H](CN2CC3CCC(C2)O3)CN1` [Example 18, 1-{6-[(4-Fluorophenyl)methyl]-3,3-dimethyl-1H,2H,3H-pyrrolo[3,2-b]pyridin-1-yl}-2-[(2R,5R)-5-methyl-2-{8-oxa-3-azabicyclo[3.2.1]octan-3-ylmethyl}piperazin-1-yl]ethan-1-one dihydrochloride], in experiment [1], the inhibition at 0.04 µM stood at 35%. Moreover, the EC50 was 1.8 nM in experiment [2] (setting [3]) and below 1000 nM in experiment [2] (setting [4]).

As to `CC1N(C[C@H]2CN[C@H](C)CN2CC(=O)N2CC(C)(C)c3ncc(Cc4ccc(F)cc4)cc32)CCOC1(C)C` (stereo partly drawn) [Example 32, 1-{6-[(4-Fluorophenyl)methyl]-3,3-dimethyl-1H,2H,3H-pyrrolo[3,2-b]pyridin-1-yl}-2-[(2R,5R)-5-methyl-2-[(2,2,3-trimethylmorpholin-4-yl)methyl]piperazin-1-yl]ethan-1-one dihydrochloride], the inhibition at 0.04 µM in experiment [1] stood at 42%. The EC50 in experiment [2] (setting [3]) is 0.7 nM; in experiment [2] (setting [4]) it was below 1000 nM.

Regarding `CC(=O)N1CCN(C[C@H]2CN[C@H](C)CN2CC(=O)N2CC(C)(C)c3ncc(Cc4ccc(F)cc4)cc32)[C@H](C)C1` [Example 52, 2-[(2R,5R)-2-{[(2R)-4-Acetyl-2-methylpiperazin-1-yl]methyl}-5-methylpiperazin-1-yl]-1-{6-[(4-fluorophenyl)methyl]-3,3-dimethyl-1H,2H,3H-pyrrolo[3,2-b]pyridin-1-yl}ethan-1-one, dihydrochloride], in experiment [1], the inhibition at 0.04 µM worked out at 49%. The EC50 in experiment [2] (setting [3]) is 1 nM; in experiment [2] (setting [4]), below 1000 nM.

As for `CCCC(O)c1cnc2c(c1)N(C(=O)CN1C[C@@H](C)NC[C@@H]1CN1[C@H](C)COC[C@H]1C)CC2(C)C` (single isomer, unassigned) [Example 101, 2-[(2R,5R)-2-{[(3R,5R)-3,5-Dimethylmorpholin-4-yl]methyl}-5-methylpiperazin-1-yl]-1-[6-(1-(R or S)-hydroxybutyl)-3,3-dimethyl-1H,2H,3H-pyrrolo[3,2-b]pyridin-1-yl]ethan-1-one dihydrochloride], the inhibition at 0.04 µM in experiment [1] amounted to 47%. The EC50 in experiment [2] (setting [3]) is 31 nM; in experiment [2] (setting [4]), below 1000 nM.
